Laboratory results as given in ChEMBL document CHEMBL5032517, “Synthesis of the analogs of plocabulin and their preliminary structure-activity relationship study” (Bioorg Med Chem Lett, 2021).

Key:
Tubulin = experiment: Inhibition of tubulin polymerization (unknown origin); assay type: protein-complex assay, Homo sapiens
A549 [1] = experiment: Antiproliferative activity against human A549 cells assessed as inhibition of cell growth by secondary round CCK8 assay; assay type: functional, cell-based
HT-29 [2] = experiment: Antiproliferative activity against human HT-29 cells assessed as inhibition of cell growth by secondary round CCK8 assay
HepG2 [3] = experiment: Antiproliferative activity against human HepG2 cells assessed as inhibition of cell growth by secondary round CCK8 assay; assay type: functional, cell-based
A549 [4] = experiment: Antiproliferative activity against human A549 cells assessed as inhibition of cell growth by first round CCK8 assay; assay type: functional, cell-based
HT-29 [5] = experiment: Antiproliferative activity against human HT-29 cells assessed as inhibition of cell growth by first round CCK8 assay; assay type: functional, cell-based
HepG2 [6] = experiment: Antiproliferative activity against human HepG2 cells assessed as inhibition of cell growth by first round CCK8 assay; assay type: functional, cell-based

Work on `COC1=CC[C@@H]([C@@H](C)/C=C(C)/C=C\C=C/C(=O)N[C@H](C(=O)N/C=C(/C)CCOC(N)=O)C(C)(C)C)OC1=O` yielded an IC50 (Tubulin) of 16 µM.
With `C/C=C\CC(C/C=C\NC(=O)[C@@H](NC(=O)\C=C/C=C\C(C)=C\[C@H](C)[C@@H]1CC=C(OC)C(=O)O1)C(C)(C)C)OC(N)=O` (some centres not stated) the IC50 (A549 [1]) was < 0.2 nM, the IC50 (HT-29 [2]) was < 0.2 nM and the IC50 (HepG2 [3]) was 0.36 nM. For the same compound, the IC50 (A549 [4]) was 0.72 nM, the IC50 (HT-29 [5]) was 0.27 nM and the IC50 (HepG2 [6]) was 1.64 nM. For the same compound, the IC50 (Tubulin) was 3.1 µM.
For `COC1=CC[C@@H]([C@@H](C)/C=C(C)/C=C\C=C/C(=O)N[C@H](C(=O)N/C=C\CCOC(N)=O)C(C)(C)C)OC1=O`, the IC50 (A549 [4]) was 2.4 nM, the IC50 (HT-29 [5]) was 1.1 nM and the IC50 (HepG2 [6]) was 5.8 nM.
Work on `CC(=O)O[C@H]1C(=O)[C@@]2(C)[C@H]([C@H](OC(=O)c3ccccc3)[C@]3(O)C[C@H](OC(=O)[C@H](O)[C@@H](NC(=O)c4ccccc4)c4ccccc4)C(C)=C1C3(C)C)[C@]1(OC(C)=O)CO[C@@H]1C[C@@H]2O` [PACLITAXEL] yielded an IC50 (HepG2 [3]) of 10.1 nM.
